The values that follow come from paper PMC8623273, “Novel N7-Arylmethyl Substituted Dinucleotide mRNA 5′ cap Analogs: Synthesis and Evaluation as Modulators of Translation” (Pharmaceutics, 2021).

Data set [1] addresses eIF4E (Mus musculus, UniProt P63073). Nature of the data set: fluorescence anisotropy (FA) competition assay with eIF4E. The format is binding. Conditions: Table S2; for EC50: 25 °C, probe m^7GTP-triazol-FAM 10 nM, eIF4E 100 nM; for Kd: calculated from EC50. From the text: The KD values determined from the high-throughput assay were in qualitative agreement with data from time-synchronized fluorescence quenching titration, justifying the use of the former for evaluation of the whole set of caps. […] To additionally verify the binding affinity data (especially for 1q and 1r, as mentioned above), we determined the binding affinities for all analogs using another independent assay, based on fluorescence anisotropy. The KD data determined by this method correlated very well with the results reported above (Table S2, Figure S2).
Fractions of the compounds were independently tested using a different method based on fluorescence anisotropy (FA). These experiments were performed on a Synergy™ H1 plate reader in 96-well, black, non-binding assay plates. Each well contained appropriate buffer (50 mM HEPES/KOH pH 7.2, 100 mM KCl, 0.5 mM EDTA i 1 mM DTT), the fluorescent probe m^7GTP-triazol-FAM (10 nM), substrate (in a 2.08-fold dilution, starting from 60 μM) and protein eIF4E (100 nM). The m^7GTP-triazol-FAM was synthesized as describer earlier. All measurements were performed at 25 °C. Determined EC50 values were means ± SD of three independent experiments. The dissociation constants KD were then calculated using the equation described by Nikolovska-Coleska as described earlier.

Data set [2] has as its target eukaryotic translation initiation factor 4E (eIF4E) (Mus musculus, UniProt P63073). Nature of the data set: pyrene-probe fluorescent competitive-binding assay (PyFLINT-B) for cap analog-eIF4E. Conditions: for EC50: Table S2; for Kd: pyrene-based high-throughput competition assay, 30 °C, KD calculated from EC50, read-out: KD Cap-eIF4E ± SD; for effect of the N7 substituent on eIF4E binding (in words): compared to m^7GpppG / 1a or unmodified counterpart. The text has this: High affinity for eIF4E is a desirable feature of cap analogs designed for modulating translation, either as small molecules or as a part of mRNA. Thus, we studied how different substituents at the N7-position affected eIF4E-cap interaction. To this end, we first determined the affinity of m^7GpppG and Bn^7GpppG (1a) using time-synchronized fluorescence quenching titration, a very precise and well-established, but low-throughput method. Next, to evaluate the whole set of the synthesized compounds (1a–1r), we used a high-throughput competitive-binding assay based on a pyrene-labeled fluorescent probe. From this assay we determined relative affinities of the compounds represented by half-effective concentrations (EC50) (Figure 3A–C), which were then used to calculate dissociation constant (KD) values for cap analog–eIF4E complexes using previously reported equations (Table 2, Figure 3D).
To determine the dissociation constants of the library of N7-benzylated dinucleotide 5′ cap analogs for translation initiation factor 4E, a fluorescent competitive-binding assay (PyFLINT-B) was applied as previously described. The experiments were performed on a Synergy™ H1 plate reader in 96-well, black, non-binding assay plates. Each well contained an appropriate buffer (50 mM Hepes/KOH pH 7.2, 100 mM KCl and 0.5 mM EDTA), pyrene probe m^7Gp5C4Py (10 nM), substrate (in half-logarithmic dilutions from 850 μM to 0.03 μM for compound 1m and from 100 μM to 0.003 μM for m^7GpppG and the rest of the compounds) and protein eIF4E (75 nM). The m^7Gp5C4Py was synthesized as describer earlier. The pyrene probe was dissolved in water and concentration was determined spectrometrically at 345 nm using the extinction coefficient (21,000 M^−1 cm^−1). The eIF4E protein was centrifuged after defrosting (5 min, 4 °C, 10k rcf) and its concentration was determined spectrometrically at 280 nm using the extinction coefficient (52,940 M^−1 cm^−1). The reaction mixtures were preincubated (15 min, 300 rpm, 30 °C). All measurements were performed at 30 °C and the fluorescence detection at 345 nm excitation and 378 nm emission was recorded.
To determine EC50 values, GraphPad Prism 9.1.2 software was used. To fit the curves to the obtained data we used the following formula:(1) Y=Bottom+ Top−Bottom/1+ X/EC50 where: X, cap analog (ligand) concentration; EC50, concentration of the cap analog resulting in half-maximal response from the fluorescent probe–protein complex; Bottom, minimal signal from the negative control, which contains only the free probe; Top, maximal signal from the positive control, the mixture of the protein and the fluorescent probe.
The dissociation constants KD were then calculated using the equation described by Nikolovska-Coleska et al.:(2) KD=EC50−Pt+PL50KD_probe/L50+1/L50/KD_probe+P0/KD_probe+1 where: EC50, concentration of the cap analog resulting in half-maximal response from the fluorescent probe–protein complex; [Pt], total protein concentration; [PL]50, concentration of the probe–protein complex at 50% inhibition; KD_probe, dissociation constant of the complex between the fluorescent probe and the protein; [L]50, probe concentration at 50% inhibition; [P]0, free protein concentration at 0% inhibition.

The subject of data set [3] is cap-dependent translation in rabbit reticulocyte lysate (RRL). Nature of the data set: inhibition of cap-dependent translation in rabbit reticulocyte lysate (RRL). Conditions: RRL, cap analog and mRNA added at the same time (no pre-incubation), 60 min, 30 °C; read-out: Translation Inhibition IC50. Type of data set: biochemical. The protocol: After determining the affinity for eIF4E and susceptibility to DcpS, we evaluated the analogs as inhibitors of protein translation in rabbit reticulocyte lysates (RRL). To enable better assessment of how these two factors influenced inhibitory properties, we performed two sets of experiments. In the first set, cap analogs were added to RRL along with luciferase-encoding reporter mRNA followed by a protein activity (luminescence) readout after 1 h, whereas in the second set cap analogs were additionally preincubated in RRL for 1 h prior to addition of mRNA. Based on previously reported findings, we expected that in the second experimental setup, cap analogs susceptible to DcpS would lose their inhibitory potency, whereas compounds resistant to DcpS would remain similarly active.
The ability of the N7-benzyl cap analogues to inhibit cap-dependent translation was assayed in a rabbit reticulocyte lysate (RRL) system. Two sets of experiments were performed. In both variants, in vitro translation reactions (10 μL total volume) contained a tested cap analog (inhibitor) and an in vitro transcribed, ARCA-capped mRNA encoding Gaussia luciferase at 1 μg/mL final concentration. In experimental variant A, cap analogues at concentrations in the range of 0 to 64 μM and mRNA were added to the reaction mixture at the same time. Reactions were incubated at 30 °C for 60 min and then stopped by freezing in liquid nitrogen. In experimental variant B, the cap analogues were added at concentrations in the range of 0 to 160 μM. Reactions were pre-incubated at 30 °C for 60 min prior to addition of mRNA; after addition of mRNA incubation was continuous at 30 °C for 60 min and then stopped by freezing in liquid nitrogen. To detect luminescence from Gaussia luciferase, 50 μL of 10 ng/mL h-coelenterazine (NanoLight, Norman, OK, USA) in PBS was added to 10 μL of RRL and the luminescence was measured with a Synergy H1 (BioTek, Winooski, VT, USA) microplate reader.

In data set [4] the target is T1, hDcpS (Homo sapiens, UniProt Q96C86).
T1 sequence (Q96C86 1-337): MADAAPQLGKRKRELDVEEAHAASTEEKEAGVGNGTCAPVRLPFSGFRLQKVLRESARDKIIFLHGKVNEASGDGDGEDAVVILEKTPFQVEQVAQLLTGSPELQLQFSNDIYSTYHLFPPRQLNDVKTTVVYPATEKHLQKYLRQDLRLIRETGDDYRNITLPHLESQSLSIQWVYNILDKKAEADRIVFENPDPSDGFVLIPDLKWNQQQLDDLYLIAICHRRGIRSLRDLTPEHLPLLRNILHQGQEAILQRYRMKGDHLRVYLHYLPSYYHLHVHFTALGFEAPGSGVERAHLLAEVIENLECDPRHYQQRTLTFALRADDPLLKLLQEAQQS
Type of data set: in vitro ADME. Conditions: 100 μM compound, 20 nM hDcpS; for hDcpS Assay: fraction of the cap remaining after 1 h incubation with DcpS: 37 °C. The protocol:
Susceptibility to decapping scavenger (DcpS) is one of the factors that could potentially influence the cellular stability of mono- and dinucleotide cap analogs designed as translational inhibitors. Therefore, we studied the susceptibility of arylmethyl-modified dinucleotides to DcpS. The compounds (at 100 μM concentration each) were incubated with 20 nM of hDcpS, and the hydrolysis progress at different time points was analyzed via RP HPLC and compared to m^7GpppG (Figure 4 and Figure S3).
The enzymatic activity of DcpS was assayed at 37 °C in 50 mM Tris∙HCl, pH 7.6 containing 200 mM KCl, 0.5 mM EDTA. DcpS cleavage assays were carried out with 100 μM of the tested compound and 20 nM (monomer) of the hDcpS. Enzymatic reaction progress was examined after 30, 60 and 180 min. As a control, a sample was examined before adding enzyme. Aliquots of 15 μL were terminated by heat inactivation of the enzyme for 3 min at 98 °C. The samples were analyzed via RP HPLC equipped with a Supelcosil LC-18-T column (4.6 × 250 mm, 5 μm, flow rate 1.3 mL/min).

Molecules are shown by their SMILES.

Chain of eukaryotic translation initiation factor 4E (eIF4E) (P63073 whole entry): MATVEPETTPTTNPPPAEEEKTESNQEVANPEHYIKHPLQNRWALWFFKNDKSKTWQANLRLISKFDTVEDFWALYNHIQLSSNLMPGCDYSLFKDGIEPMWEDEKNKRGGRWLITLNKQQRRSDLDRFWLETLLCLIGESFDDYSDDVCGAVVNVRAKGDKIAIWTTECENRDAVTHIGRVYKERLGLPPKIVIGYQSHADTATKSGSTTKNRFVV
Chain of eIF4E (P63073 whole entry): as above

As usually defined, the EC50 is the midpoint of the concentration-response curve. The Kd is a measure of binding affinity in units of concentration. By IC50 is commonly meant the concentration that inhibits the measured activity by half. Consider `Nc1nc(O)c2c(n1)n([C@@H]1O[C@H](COP(=O)(O)OP(=O)([O-])OP(=O)(O)OC[C@H]3O[C@@H](n4cnc5c(=O)[nH]c(N)nc54)[C@H](O)[C@@H]3O)[C@@H](O)[C@H]1O)c[n+]2Cc1ccc(F)cc1F` [1j, 2,4-di-F-Bn^7GpppG], for which, in data set [1], the EC50 is 870 ± 50 nM and the dissociation constant Kd is 298 ± 18 nM. Further, in data set [2], the EC50 was 6900 nM and the Kd was 598 ± 87 nM. Also, the IC50 in data set [3] was 8400 ± 1500 nM. Moreover, in data set [4], the “conversion after 1 h of incubation with hDcpS” value is roughly 70% and the “hDcpS Assay: fraction of the cap remaining after 1 h incubation with DcpS” value is on record as 0.70.
As for `Cc1ccc(C[n+]2cn([C@@H]3O[C@H](COP(=O)(O)OP(=O)([O-])OP(=O)(O)OC[C@H]4O[C@@H](n5cnc6c(=O)[nH]c(N)nc65)[C@H](O)[C@@H]4O)[C@@H](O)[C@H]3O)c3nc(N)nc(O)c32)cc1` [1d, 4-MeBn^7GpppG], in data set [1], the EC50 turned out to be 860 ± 30 nM and the Kd is 295 ± 13 nM. Besides, in data set [2], the EC50 was 5600 nM and the Kd is 482 ± 81 nM. For the same compound, the IC50 in data set [3] was 16900 ± 3500 nM. In data set [4], the “susceptibility to hDcpS (in words)” value is “almost as good a substrate as Bn^7GpppG” and the “hDcpS Assay: fraction of the cap remaining after 1 h incubation with DcpS” value was 0.53.
Turning to `Nc1nc(O)c2c(n1)n([C@@H]1O[C@H](COP(=O)(O)OP(=O)([O-])OP(=O)(O)OC[C@H]3O[C@@H](n4cnc5c(=O)[nH]c(N)nc54)[C@H](O)[C@@H]3O)[C@@H](O)[C@H]1O)c[n+]2Cc1ccc2ccccc2c1` [1p, β-Naphm^7GpppG], in data set [2], the EC50 was 12000 ± 600 nM, the “effect of the N7 substituent on eIF4E binding (in words)” value (from here on “effect of the N7 substituent”) was “disrupted the binding to a similar extent as 2-methylbenzyl” and the Kd is 1060 ± 190 nM. For the same compound, the IC50 in data set [3] was found to be 15900 ± 3400 nM. Besides, in data set [4], the “susceptibility to hDcpS (in words)” value is recorded as “lower susceptibility to hDcpS than m^7GpppG” and the “hDcpS Assay: fraction of the cap remaining after 1 h incubation with DcpS” value was determined as 0.84.
`Nc1nc(O)c2c(n1)n([C@@H]1O[C@H](COP(=O)(O)OP(=O)([O-])OP(=O)(O)OC[C@H]3O[C@@H](n4cnc5c(=O)[nH]c(N)nc54)[C@H](O)[C@@H]3O)[C@@H](O)[C@H]1O)c[n+]2Cc1ccc(C(=O)O)cc1` [1m, 4-COOH-Bn^7GpppG]: in data set [2], the “effect of the N7 substituent” value is “completely disrupted the binding” and the Kd was greater than 50000 nM. Further, in data set [3], the IC50 is greater than 500000 nM. In data set [4], the “susceptibility to hDcpS (in words)” value was “Lower susceptibility to hydrolysis” and the “hDcpS Assay: fraction of the cap remaining after 1 h incubation with DcpS” value stood at 0.93.
`Cc1ccccc1C[n+]1cn([C@@H]2O[C@H](COP(=O)(O)OP(=O)([O-])OP(=O)(O)OC[C@H]3O[C@@H](n4cnc5c(=O)[nH]c(N)nc54)[C@H](O)[C@@H]3O)[C@@H](O)[C@H]2O)c2nc(N)nc(O)c21` [1b, 2-MeBn^7GpppG]: in data set [1], the EC50 was found to be 3100 ± 100 nM and the Kd was 1120 nM. Besides, in data set [2], the “effect of the N7 substituent” value is “decreased the binding affinity by eight-fold” and the Kd was 1910 ± 360 nM. Moreover, the IC50 in data set [3] was 154000 ± 88000 nM. For the same compound, in data set [4], the “susceptibility to hDcpS (in words)” value was “very slowly hydrolyzed” and the “hDcpS Assay: fraction of the cap remaining after 1 h incubation with DcpS” value was 0.88.
On to `Nc1nc(O)c2c(n1)n([C@@H]1O[C@H](COP(=O)(O)OP(=O)([O-])OP(=O)(O)OC[C@H]3O[C@@H](n4cnc5c(=O)[nH]c(N)nc54)[C@H](O)[C@@H]3O)[C@@H](O)[C@H]1O)c[n+]2Cc1cccc2ccccc12` [1o, α-Naphm^7GpppG], for which, in data set [1], the EC50 came out at 2100 ± 100 nM and the Kd is 739 ± 49 nM. Besides, in data set [2], the EC50 was determined as 35000 nM, the “effect of the N7 substituent” value is “disrupted the binding to a similar extent as 2-methylbenzyl” and the Kd was 3040 ± 490 nM. In data set [4], the “susceptibility to hDcpS (in words)” value was “lower susceptibility to hDcpS than m^7GpppG” and the “hDcpS Assay: fraction of the cap remaining after 1 h incubation with DcpS” value came out at 0.97.
